What was measured:
[1] = test system: cocklebur; test: Test B pre/postemergence cocklebur; type: in vivo, Xanthium strumarium
How it was run: (§1)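 Herbicidal effect was estimated by eye on a ten-point control scale after plants spent twelve to sixteen days in a greenhouse following soil or foliar treatment. Foliar sprays targeted plants at one to four leaves; all doses were formulated in a non-phytotoxic solvent with surfactant.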

[2] = test system: corn; test: Test B pre/postemergence corn; type: in vivo, Zea mays
How it was run: as §1

[3] = test system: crabgrass; test: Test B pre/postemergence crabgrass; type: in vivo, Digitaria sanguinalis
How it was run: as §1

[4] = test system: giant foxtail; test: Test B pre/postemergence giant foxtail; type: in vivo, Setaria faberii
How it was run: as §1

[5] = test system: morningglory; test: Test B pre/postemergence morningglory; type: in vivo, Ipomoea hederacea
How it was run: as §1

[6] = test system: pigweed; test: Test B pre/postemergence pigweed; type: in vivo, Amaranthus retroflexus
How it was run: as §1

[7] = test system: rape; test: Test B pre/postemergence rape; type: in vivo, Brassica napus
How it was run: as §1

[8] = test system: soybean; test: Test B pre/postemergence soybean; type: in vivo, Glycine max
How it was run: as §1

[9] = test system: sugar beet; test: Test B pre/postemergence sugar beet; type: in vivo, Beta vulgaris
How it was run: as §1

[10] = test system: velvetleaf; test: Test B pre/postemergence velvetleaf; type: in vivo, Abutilon theophrasti
How it was run: as §1

[11] = test system: wheat; test: Test B pre/postemergence wheat; type: in vivo, Triticum aestivum
How it was run: as §1

[12] = test system: wild oat; test: Test B pre/postemergence wild oat; type: in vivo, Avena fatua
How it was run: as §1

[13] = test system: purple nutsedge; test: Test B pre/postemergence purple nutsedge; type: in vivo, Cyperus rotundus
How it was run: as §1

[14] = test system: rice; test: Test B flood test rice; type: in vivo, Oryza sativa
How it was run: (§2)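 Each value is a visual injury score relative to controls, with 10 meaning complete control and 0 no effect. Evaluation took place twelve to sixteen days after the 2-leaf-stage plants were treated and kept in the greenhouse.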

[15] = test system: smallflower flatsedge; test: Test B flood test smallflower flatsedge; type: in vivo, Cyperus difformis
How it was run: as §2

[16] = test system: duck salad; test: Test B flood test duck salad; type: in vivo, Heteranthera limosa
How it was run: as §2

[17] = Postemergence, Rate 125 g/ha, scale 0 to 10, 0 is no effect, 10 is complete control
[18] = Postemergence, Rate 250 g/ha, scale 0 to 10, 0 is no effect, 10 is complete control
[19] = Postemergence, Rate 500 g/ha, scale of 0 to 10 where 0 is no effect and 10 is complete control
[20] = Preemergence, Rate 62 g/ha, scale 0 to 10 (0 no effect, 10 complete control)
[21] = Preemergence, Rate 125 g/ha, scale of 0 to 10 where 0 is no effect and 10 is complete control
[22] = Preemergence, Rate 250 g/ha, scale of 0 to 10 where 0 is no effect and 10 is complete control
[23] = Rate 62 g/ha, Postemergence, scale of 0 to 10 where 0 is no effect and 10 is complete control
[24] = Preemergence, Rate 500 g/ha, scale of 0 to 10 where 0 is no effect and 10 is complete control
[25] = Rate 62 g/ha, flood test species, Pre-emergence, visual evaluation after twelve to sixteen days
[26] = Rate 125 g/ha, under heading Pre-emergence, flood test species, visual evaluation after twelve to sixteen days
[27] = Rate 250 g/ha, Pre-emergence, flood-test species, scale 0 to 10, 0 is no effect, 10 is complete control
[28] = Rate 500 g/ha, Pre-emergence, flood test species, scale 0 to 10 (0 no effect, 10 complete control)

SMILES: CC(C)N(C(=O)n1oc(=O)n(C(CF)CF)c1=O)c1ccc(F)cc1 [Compound 390]
- Plant response rating, Cocklebur [1, 17]: 0
- Plant response rating, Cocklebur [1, 18]: 3
- Cocklebur plant response rating [1, 19]: 7
- Plant response rating, Cocklebur [1, 20]: 0
- Plant response rating, Cocklebur [1, 21]: 0
- Cocklebur plant response rating [1, 22]: 2
- Cocklebur plant response rating [1, 23]: 0
- Plant response rating, Corn [2, 17]: 0
- Plant response rating, Corn [2, 18]: 0
- Corn plant response rating [2, 19]: 0
- Plant response rating, Corn [2, 20]: 0
- Plant response rating, Corn [2, 21]: 3
- Corn plant response rating [2, 24]: 7
- Corn plant response rating [2, 23]: 0
- Plant response rating, Crabgrass [3, 17]: 7
- Plant response rating, Crabgrass [3, 18]: 7
- Crabgrass plant response rating [3, 19]: 9
- Plant response rating, Crabgrass [3, 20]: 8
- Plant response rating, Crabgrass [3, 21]: 9
- Crabgrass plant response rating [3, 22]: 10
- Crabgrass plant response rating [3, 24]: 10
- Crabgrass plant response rating [3, 23]: 2
- Plant response rating, Giant foxtail [4, 17]: 9
- Plant response rating, Giant foxtail [4, 18]: 9
- Giant foxtail plant response rating [4, 19]: 10
- Plant response rating, Giant foxtail [4, 20]: 10
- Plant response rating, Giant foxtail [4, 21]: 10
- Giant foxtail plant response rating [4, 22]: 10
- Giant foxtail plant response rating [4, 24]: 10
- Giant foxtail plant response rating [4, 23]: 9
- Plant response rating, Morningglory [5, 18]: 7
- Morningglory plant response rating [5, 19]: 9
- Plant response rating, Morningglory [5, 20]: 0
- Plant response rating, Morningglory [5, 21]: 3
- Morningglory plant response rating [5, 22]: 6
- Morningglory plant response rating [5, 24]: 7
- Morningglory plant response rating [5, 23]: 2
- Plant response rating, Redroot pigweed [6, 18]: 9
- Redroot pigweed plant response rating [6, 19]: 9
- Plant response rating, Redroot pigweed [6, 20]: 8
- Plant response rating, Redroot pigweed [6, 21]: 9
- Redroot pigweed plant response rating [6, 22]: 10
- Redroot pigweed plant response rating [6, 24]: 10
- Redroot pigweed plant response rating [6, 23]: 2
- Plant response rating, Rape [7, 18]: 10
- Rape plant response rating [7, 19]: 10
- Plant response rating, Rape [7, 20]: 0
- Plant response rating, Rape [7, 21]: 2
- Rape plant response rating [7, 22]: 8
- Rape plant response rating [7, 24]: 8
- Rape plant response rating [7, 23]: 7
- Plant response rating, Soybean [8, 18]: 3
- Soybean plant response rating [8, 19]: 5
- Plant response rating, Soybean [8, 20]: 0
- Plant response rating, Soybean [8, 21]: 0
- Soybean plant response rating [8, 22]: 2
- Soybean plant response rating [8, 24]: 3
- Soybean plant response rating [8, 23]: 2
- Plant response rating, Sugarbeets [9, 18]: 5
- Sugarbeets plant response rating [9, 19]: 7
- Plant response rating, Sugarbeets [9, 20]: 5
- Plant response rating, Sugarbeets [9, 21]: 7
- Sugarbeets plant response rating [9, 22]: 8
- Sugarbeets plant response rating [9, 24]: 8
- Sugarbeets plant response rating [9, 23]: 0
- Plant response rating, Velvetleaf [10, 18]: 7
- Velvetleaf plant response rating [10, 19]: 8
- Plant response rating, Velvetleaf [10, 20]: 2
- Plant response rating, Velvetleaf [10, 21]: 4
- Velvetleaf plant response rating [10, 22]: 6
- Velvetleaf plant response rating [10, 24]: 7
- Velvetleaf plant response rating [10, 23]: 0
- Plant response rating, Wheat [11, 18]: 3
- Wheat plant response rating [11, 19]: 7
- Plant response rating, Wheat [11, 20]: 0
- Plant response rating, Wheat [11, 21]: 4
- Wheat plant response rating [11, 22]: 8
- Wheat plant response rating [11, 24]: 9
- Wheat plant response rating [11, 23]: 0
- Plant response rating, Wild oats [12, 18]: 7
- Wild oats plant response rating [12, 19]: 9
- Plant response rating, Wild oats [12, 20]: 3
- Plant response rating, Wild oats [12, 21]: 6
- Wild oats plant response rating [12, 22]: 10
- Wild oats plant response rating [12, 24]: 10
- Wild oats plant response rating [12, 23]: 0
- Plant response rating, Nutsedge [13, 18]: 3
- Plant response rating, Nutsedge [13, 20]: 0
- Plant response rating, Nutsedge [13, 21]: 0
- Nutsedge plant response rating [13, 22]: 0
- Nutsedge plant response rating [13, 24]: 2
- Nutsedge plant response rating [13, 23]: 0
- Plant response rating, Rice (0 to 10 scale, 0 is no effect, 10 is complete control) [14, 25]: 1
- Rice plant response rating (0 to 10 scale, 0 is no effect, 10 is complete control) [14, 26]: 1
- Rice plant response rating [14, 27]: 1
- Rice plant response rating [14, 28]: 4
- Plant response rating, S. Flatsedge (0 to 10 scale, 0 is no effect, 10 is complete control) [15, 25]: 0
- S. Flatsedge plant response rating (0 to 10 scale, 0 is no effect, 10 is complete control) [15, 26]: 0
- S. Flatsedge plant response rating [15, 27]: 0
- S. Flatsedge plant response rating [15, 28]: 7
- Plant response rating, Ducksalad (0 to 10 scale, 0 is no effect, 10 is complete control) [16, 25]: 0
- Ducksalad plant response rating (0 to 10 scale, 0 is no effect, 10 is complete control) [16, 26]: 0
- Ducksalad plant response rating [16, 27]: 0
- Ducksalad plant response rating [16, 28]: 3
